{
  "source": "patent US20250188427A1",
  "about": "“METHOD OF PRODUCING TARGET VIRUS AND CULTURE COMPOSITION” (FUJIFILM Corporation, priority 2022, published 2025)",
  "system": "AAV producer cell (HEK293)",
  "experiment": "AAV titer by ddPCR, JQ1 treatment with and without wash out (FIG. 4)",
  "type": "cell-based, human",
  "conditions": "JQ1 4 μmol/L for 24 hours, medium exchanged to medium without JQ1 (with doxycycline 0.5 μg/mL), recovered after further 48 hours; versus 72 hours JQ1",
  "procedure": "The HEK cell culture solution, which had been cultured for 72 hours after the gene introduction under the conditions of 37° C. and 8% CO2, was collected, and the cells were disrupted by freezing and thawing at −80° C. Then, the supernatant was collected by centrifugation at 13,800×g, 2 mmol/L (final concentration) MgCl2, and 25 U/mL Benzonase was added thereto, and a reaction was carried out at 37° C. for 2 hours to digest gDNA (genomic DNA) and residual plasmid. The sample after the reaction was incubated at 95° C. for 15 minutes, 70° C. for 3 minutes, 40° C. for 3 minutes, and 20° C. for 3 minutes in this order, to inactivate Benzonase, and the reactant was used as a ddPCR (Droplet Digital PCR) sample. […]. The sequences of the seq18, seq19, and seq20 are set forth in SEQ ID NOs: 18 to 20 in the sequence list.\nIn ddPCR, droplets were formed from the prepared solution using a droplet forming apparatus, and subsequently incubated at 95° C. for 10 minutes, 94° C. for 30 seconds, and 55° C. in this order for 40 cycles, and then incubated at 98° C. for 10 minutes. Measurement was performed using a droplet reader, and the AAV genomic titer (vg/mL) was calculated.\nFurthermore, the produced AAV producer cell was seeded at 5×10^5 cells/mL and incubated for 6 hours, and then doxycycline (final concentration: 0.5 μg/mL) and JQ1 (final concentration: 4 μmol/L) were added. […]",
  "data": [
    {"smiles": "Cc1sc2c(c1C)C(c1ccc(Cl)cc1)=N[C@@H](CC(=O)OC(C)(C)C)c1nnc(C)n1-2", "note": "[(+)-JQ1, (S)-(+)-tert-butyl 2-(4-(4-chlorophenyl)-2,3,9-trimethyl-6H-thieno[3,2-f][1,2,4]triazolo[4,3-a][1,4]diazepin-6-yl)acetate]", "values": [
      {"measurement": "AAV titer per cell", "result": "further improved"}
    ]}
  ]
}
